Values joined by “and” are separate entries in the source; they are usually repeats but may differ in a detail not shown here. Identical values can stand only once. Like-named read-outs stand apart in the source and are kept apart here.
Tests used:
[1] = test system: E. multilocularis metacestodes; assay: Intraperitoneal treatment of secondary infected mice; format: in vivo, BALB/c mice; conditions: 4 weeks, MMV665807 100 mg/kg i.p. three times per week, ABZ 200 mg/kg p.o. 5 days per week
Experimental: (§1) Animals were kept at a temperature-controlled 12/12 hours light cycle with food and water ad libitum and according to the Swiss Animal protection law. For the in vivo treatment of MMV665807, BALB/c mice (from Charles River, Sulzfeld, Germany), at the age of 8 weeks with an average body weight of 20 g, were i.p. infected with 200 μL metacestodes vesicle suspension. This material was prepared from in vitro-cultured metacestodes (strain H95), which were disintegrated by pressing the parasites through a 1 mL pipette tip. Parasite tissue was centrifuged at 500 x g for 5 min at room temperature before being mixed 1:1 in PBS.
I.p. drug treatments were initiated 2 weeks post-infection. 32 infected mice were randomly separated into 4 groups with 2 times 4 animals per cage. All animals were exposed to 4 weeks of treatment, with five consecutive days of drug application followed by a 2 day recovery period without treatment. Treatment groups were defined as follows: group 1 (control) received 50 μL of corn oil by gavage on 5 days per week, and an i.p. injection of DMSO in corn oil (4 μL DMSO and 46 μL corn oil) on three days per week; group 2 also received corn oil by gavage 5 days per week, and an i.p. injection of MMV665807 (100 mg/kg in 4 μL DMSO plus 46 μL corn oil) three times per week; group 3 was treated with the standard albendazole treatment (albendazole in corn oil, 200 mg/kg/ day for 5 days each week) and also received an i.p. injection of 4 μl DMSO suspended in 46 μl corn oil three times per week; group 4 received a combined treatment consisting of albendazole in corn oil by gavage (200 mg/kg/day 5 days per week) and an i.p. injection of MMV665807 (100 mg/kg three times per week). After 4 weeks of treatment, mice were euthanized and the parasite mass resected and measured as described above. Statistical analyses were performed as described above.

[2] = test system: E. multilocularis metacestodes; assay: Peroral treatment of secondary infected mice; format: in vivo, BALB/c mice; conditions: p.o. gavage 5 days per week, 4 weeks, MMV665807 100 mg/kg, ABZ 200 mg/kg
Experimental: as §1
Peroral (p.o.) drug treatments by gavage were initiated 6 weeks post-infection and performed as follows: group 1 received no treatment at all; group 2 received 100 μL corn oil containing 7.8 μL DMSO; group 3 mice were treated with 100 μL corn oil containing albendazole (ABZ) in 7.8 μL DMSO, in order to obtain a dosage of 200 mg/kg body weight (positive control); group 4 was treated with 100 μL corn oil containing MMV665807 in 7.8 μL DMSO, resulting in 100 mg/kg body weight. All mice were treated for a total time period of 4 weeks, with consecutive treatment during 5 days per week, and interruption of treatment for 2 days each week. At the end of the treatment, all mice were sedated by isoflurane and subsequently euthanized by CO2. All parasite tissue was resected, placed into a petri dish, and the parasite mass was weighed. Statistical analysis of the in vivo experiments was performed in R version 3.0.1. The data distribution was checked by Shapiro-Wilk test and eventual differences between treatment groups identified by the non-parametric Kruskal-Wallis test. P values were calculated by the non-parametric Wilcoxon […] test with Bonferroni-adjustment. Boxplot visualizations of the data were prepared in Microsoft Excel 2010.

[3] = test system: adult worms; set-up: method as in PMID 24416463; conditions: in vitro; read-out: IC50 against adult worms; cited from earlier work
[4] = test system: E. multilocularis metacestodes; assay: PGI assay: phosphoglucose isomerase release from damaged metacestodes; format: cell-based, Echinococcus multilocularis; conditions: 5 days; for activity in PGI assay at 1 μM: triplicates; for EC50: PGI assay, 10-0.01 μM; for PGI (% of DB1127 at 10 uM): single wells, relative to DB1127 (10 μM)
Outline: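 Damage readout: PGI enzyme release after 5-day in vitro culture of 2–4 mm metacestode vesicles (H95 strain, from i.p.-infected BALB/c mice) with compound. Primary screen: 10 μM per single well, 0.1% DMSO negative control. EC50 calculated from PGI release data.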

[5] = test system: newly transformed schistosomula; set-up: method as in PMID 24416463; conditions: in vitro; read-out: IC50 against newly transformed schistosomula; cited from earlier work
[6] = test system: E. multilocularis germinal layer cells; assay: CellTiter-Glo viability assay on germinal layer cell cultures; format: cell-based; conditions: Echinococcus multilocularis, 120 h, 5 days, read-out: E.m. GL cells (IC50)
Experimental: To assess the effects of MMV665807 on the viability of parasite cells, germinal layer cells were extracted according to Spiliotis et al. After overnight aggregate formation, 15 units of cells were distributed to a black 384 well plate (Nunc, Thermo Scientific, Reinach, Switzerland) in 12.5 μL medium. A concentration series (final concentrations of 3, 1, 0.3, 0.1, 0.03, 0.01 μM) of MMV665807, MMV665794 and mefloquine were prepared in medium and added 1:2 to the cells. For mefloquine, the concentration range was adjusted in a subsequent setup up to 100 μM. As negative control, DMSO was added accordingly. After 5 days of culture at 37°C under humid nitrogen atmosphere, 25 μL CellTiter-Glo (Promega, Dübendorf, Switzerland) including 1% TritonX-100 was added. Plates were incubated for 15 minutes on a shaker at room temperature and complete disruption of all cell aggregates was checked for before measurement of luminescence on a 2300 Enspire multilabel reader (Perkin-Elmer). Mean values and standard deviations were calculated and DMSO values set to 100% viability. The IC50 value was calculated in Microsoft Excel 2010 after logit-log transformation and averages as well as standard deviations of four independent setups were calculated.

[7] = test system: human foreskin fibroblasts (HFF); assay: alamarBlue viability assay on HFF; format: cell-based; conditions: Fibroblast, 120 h, 5 days
Experimental: (§2) For testing growth inhibitory effects on confluent host cells, cells were seeded in 96-well plates (10,000 cells per well for HFF and 50,000 cells per well for RH cells), in DMEM containing FBS (10%) and antibiotics (100 U penicillin, 100 μg streptomycin and 0.25 μg amphotericin B per mL medium) and were cultured overnight at 37°C, 5% CO2. Thereafter the drugs (10 μM) were added and diluted in a serial 1:2 dilutions down to 20 nM. The concentration range was further adjusted in subsequent setups. For testing growth inhibitory effects on proliferating cells, cells were seeded at 1,000 (HFF) and 5,000 (RH) cells per well, and were allowed to attach for 5 hours at 37°C before addition of the drugs. After 5 days of culture, cell viability was assessed by alamarBlue assay.

[8] = test system: Reuber rat hepatoma (RH) cells; assay: alamarBlue viability assay on RH cells; format: cell-based; conditions: 120 h, 5 days
Experimental: as §2

[9] = test system: S. mansoni; set-up: method as in PMID 24416463; conditions: cited from earlier work
[10] = test system: E. multilocularis metacestode vesicles; assay: microbe, parasite or virus in culture; conditions: Echinococcus multilocularis, 288 h, read-out: mean viability
[11] = test system: E. multilocularis metacestodes; conditions: PGI assay; cited from earlier work

With `CCCSc1ccc2nc(NC(=O)OC)[nH]c2c1` [ABZ, albendazole, reference compound] the “parasite weight compared to placebo group” value ([1]; start 2 weeks post-infection) was “significantly lower”, the “adverse effects during treatment” value [1] was “No adverse effects” and the “parasite weight compared to control” value ([2]; start 6 weeks post-infection) was “significant reduction”. The “adverse effects during treatment” value [2] was “No adverse effects”.

For `Brc1ccc(Nc2nc3ccccc3nc2Nc2ccc(Br)cc2)cc1` [MMV007224], the IC50 [3] is listed as 800 nM, the “activity in PGI assay at 1 μM” value [4] is listed as “lost its activity” and the IC50 [5] is listed as over 33 µM.

For `FC(F)(F)c1cccc(Nc2nc3ccccc3nc2Nc2cccc(C(F)(F)F)c2)c1` [MMV665794], the IC50 [3] is listed as 1100 nM, the IC50 [6] is listed as 5.8 ± 0.16 µM and the IC50 ([7]; confluent cells, read-out: Confluent HFF (IC50)) is listed as 21.5 ± 0.17 µM. It also gave an IC50 ([7]; proliferating cells, read-out: Preconfluent HFF (IC50)) of 5.9 ± 0.21 µM, an IC50 ([8]; confluent cells, read-out: Confluent RH (IC50)) of 800 ± 150 nM and an IC50 ([8]; proliferating cells, read-out: Preconfluent RH (IC50)) of 1100 ± 180 nM. For the same molecule, the EC50 ([4]; Echinococcus multilocularis, 120 h) was under 5000 nM, the EC50 [4] was 2800 ± 530 nM and the IC50 [5] was over 33.3 µM.

In the case of `O=C(Nc1ccc(Cl)c(Cl)c1)Nc1ccc(Cl)c(Cl)c1` [MMV665852], the IC50 [3] is given as 800 nM, the worm burden reduction ([9]; 80 mg/kg) is given as 46% and the worm burden reduction ([9]; 400 mg/kg) is given as 52.5%. The worm burden reduction ([9]; 4x100 mg/kg) was 31.2%, the “activity in PGI assay at 1 μM” value [4] was “no activity at all” and the “PGI (% of DB1127 at 10 uM)” value [4] was 14.8% and 14.75%. The IC50 [5] was 4.7 µM.

In the case of `CCOC(=O)c1c(C)n(-c2ccc(Cl)cc2)c2ccc(OC(=O)C=Cc3ccccc3)cc12` [MMV666600], the “PGI (% of DB1127 at 10 uM)” value [4] is reported as -39.04%.

With `CCOC(=O)C1=C(c2ccccc2)N=c2sc(=Cc3cc(C)n(-c4ccc(F)cc4)c3C)c(=O)n2C1c1cccc(OC)c1OC` (stereo not drawn) [MMV666601] the “PGI (% of DB1127 at 10 uM)” value [4] was -52.06%.

For `CCOC(=O)C1=C(C)N=c2sc(=Cc3ccccc3O)c(=O)n2C1c1ccc(OC)c2ccccc12` (stereo not drawn) [MMV666604], the “PGI (% of DB1127 at 10 uM)” value [4] was -9.67%.

In the case of `O=[N+]([O-])c1ccc(C=NNc2nc3ccccc3[nH]2)cc1` [MMV666607], the “PGI (% of DB1127 at 10 uM)” value [4] is reported as -48.05%.

With `COc1ccccc1C(=O)ON=C(N)Cc1cccc2ccccc12` [MMV666686] the “PGI (% of DB1127 at 10 uM)” value [4] was 1.82%.

For `COc1cc(C(=O)ON=C(N)Cc2cccc3ccccc23)cc(OC)c1OC` [MMV666687], the “PGI (% of DB1127 at 10 uM)” value [4] was 1.57%.

For `Cc1cc(C=C2SC(=Nc3ccccc3)N(C3CCCC3)C2=O)c(C)n1-c1ccc(Cl)cc1` [MMV666688], the “PGI (% of DB1127 at 10 uM)” value [4] was -35.93%.

With `COc1ccc(Nc2nc(N/N=C/c3ccc(O)cc3)nc(Nc3ccc([N+](=O)[O-])cc3)n2)cc1` [MMV666689] the “PGI (% of DB1127 at 10 uM)” value [4] was 5.99%.

For `COc1ccc(C=C2SC(=N)N(c3ccccc3OC)C2=O)cc1` [MMV666691], the “PGI (% of DB1127 at 10 uM)” value [4] was -41.85%.

In the case of `CCCCCCc1cc2cc(-c3csc(C=Cc4ccccc4)n3)c(=O)oc2cc1O` [MMV666692], the “PGI (% of DB1127 at 10 uM)” value [4] is reported as -4.22%.

In the case of `COc1cccc(C=Cc2nc(=O)c3ccccc3o2)c1OC` [MMV666693], the “PGI (% of DB1127 at 10 uM)” value [4] is reported as -16.84%.

For `CCOc1ccc(N2C(N)=NC(N)=NC2(C)C)cc1.Cl` [MMV667486], the “PGI (% of DB1127 at 10 uM)” value [4] was -3.47%.

In the case of `CN(C)c1ccc(N2C(N)=NC(N)=NC2(C)C)cc1` [MMV667487], the “PGI (% of DB1127 at 10 uM)” value [4] is reported as -14.53%.

In the case of `COc1ccc(CCn2c(=N)c(C(=O)NCc3cccnc3)cc3c(=O)n4cccc(C)c4nc32)cc1` [MMV667488], the “PGI (% of DB1127 at 10 uM)” value [4] is reported as -13.42%.

With `COC(=O)c1ccc(Cl)c2c1C1C=CCC1C(c1cccc3ccccc13)N2` (stereo not drawn) [MMV667489] the “PGI (% of DB1127 at 10 uM)” value [4] was 2.16%.

In the case of `COc1ccc(C2c3ccc4ccccc4c3Oc3ncn(CCCn4ccnc4)c(=N)c32)cc1OC` (stereo not drawn) [MMV667490], the “PGI (% of DB1127 at 10 uM)” value [4] is reported as -1.19%.

For `COc1ccc(C2c3ccc4ccccc4c3Oc3ncn(CCCN(C)C)c(=N)c32)cc1` (stereo not drawn) [MMV667491], the “PGI (% of DB1127 at 10 uM)” value [4] was 39.81%.

For `CN(N=O)C1=C(NC2CCCCC2)C(=O)c2ccccc2C1=O` [MMV667492], the “PGI (% of DB1127 at 10 uM)” value [4] was -5.36%.

With `OC(c1cc(C(F)(F)F)nc2c(C(F)(F)F)cccc12)C1CCCCN1` (stereo not drawn) [Mefloquine, mefloquine, reference compound] the IC50 [6] was 13.8 ± 0.33 µM, the viability at 0.1 µM [10] was 59.7% and the viability at 0.2 µM [10] was 74.3%. The viability at 0.4 µM [10] was 67.9%, the viability at 0.8 µM [10] was 70.9% and the viability at 1.6 µM [10] was 75%. For the same molecule, the viability at 3.1 µM [10] was 63.5%, the viability at 6.3 µM [10] was 65.8% and the viability at 12.5 µM [10] was 79.4%. It also gave a viability at 25 µM [10] of 83.1%, a viability at 50 µM [10] of 5.25% and a viability at 100 µM [10] of 8.49%. The EC50 [11] was over 30 µM.
